Results taken from ChEMBL document CHEMBL4382216, “Asymmetric synthesis and biological evaluation of imidazole- and oxazole-containing synthetic lipoxin A4 mimetics (sLXms)” (Eur J Med Chem, 2019).
Values belong to the molecule of their own block, whether it stands above or below them. Calls of active or inactive are those of the source. No cut-off for these calls is given here.

Assays:
Homo sapiens [1] = organism: Homo sapiens; experiment: Activation of Luc-fused NFkB (unknown origin) expressed in non-stimulated human THP1 cells assessed as relative luminescence unit at 10^-6 M after 24 hrs by luciferase reporter gene assay (reference value: 100%); assay type: cell-based
THP-1 [2] = experiment: Cytotoxicity against human THP1 cells harboring NFkB-Luc assessed as LDH release at 10'10 M after 24 hrs by spectrophotometric method relative to control; assay type: cell-based; conditions: thp-1, 24 h
THP-1 [3] = experiment: Cytotoxicity against human THP1 cells harboring NFkB-Luc assessed as LDH release at 10'6 M after 24 hrs by spectrophotometric method relative to control; assay type: cell-based; conditions: thp-1, 24 h
Homo sapiens [4] = organism: Homo sapiens; experiment: Activation of Luc-fused NFkB (unknown origin) expressed in non-stimulated human THP1 cells assessed as relative luminescence unit at 10^-9 M after 24 hrs by luciferase reporter gene assay (reference value: 100%); assay type: cell-based
Mus musculus [5] = experiment: (§1) Anti-inflammatory activity in zymosan-induced C57BL/6J mouse peritonitis model assessed as total cell count in peritoneal cavity at 50 ng, ip pretreated for 30 mins followed by zymosan treatment and redosing of test compound at 1 hr post zymosan addition and measured 4 hrs post zymosan addition by flow cytometry (reference value: 100%); assay type: functional
THP-1 [6] = experiment: Cytotoxicity against human THP1 cells harboring NFkB-Luc assessed as LDH release at 10'11 M after 24 hrs by spectrophotometric method relative to control; assay type: cell-based; conditions: thp-1, 24 h
THP-1 [7] = experiment: Cytotoxicity against human THP1 cells harboring NFkB-Luc assessed as LDH release at 10'8 M after 24 hrs by spectrophotometric method relative to control; assay type: cell-based; conditions: thp-1, 24 h
Homo sapiens [8] = organism: Homo sapiens; experiment: Activation of Luc-fused NFkB (unknown origin) expressed in non-stimulated human THP1 cells assessed as relative luminescence unit at 10^-11 M after 24 hrs by luciferase reporter gene assay (reference value: 100%); assay type: cell-based
[9] = molecular target: T1, N-formyl peptide receptor 2 (Homo sapiens, UniProt P25090); experiment: Agonist activity at ALX/FPR2 in human THP1 cells harboring NF-kB-Luc assessed as inhibition of LPS-induced NFkB signalling activation by measuring reduction in IFNgamma secretion pretreated for 30 mins followed by LPS stimulation for 24 hrs by electrochemiluminescence assay; assay type: cell-based; conditions: read-out: IC50
T1 sequence (P25090 whole entry): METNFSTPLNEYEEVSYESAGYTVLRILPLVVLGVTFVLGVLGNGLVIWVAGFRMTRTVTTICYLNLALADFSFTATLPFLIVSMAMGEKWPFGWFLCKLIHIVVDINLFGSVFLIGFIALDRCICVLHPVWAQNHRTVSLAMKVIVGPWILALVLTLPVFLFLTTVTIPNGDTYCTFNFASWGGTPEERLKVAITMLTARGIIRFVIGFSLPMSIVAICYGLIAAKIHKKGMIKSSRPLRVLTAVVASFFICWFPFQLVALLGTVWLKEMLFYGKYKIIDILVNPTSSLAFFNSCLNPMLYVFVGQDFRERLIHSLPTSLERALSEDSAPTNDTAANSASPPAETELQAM

[10] = molecular target: T1, N-formyl peptide receptor 2; experiment: Agonist activity at ALX/FPR2 in human THP1 cells harboring NF-kB-Luc assessed as inhibition of LPS-induced NFkB signalling activation pretreated for 30 mins followed by LPS stimulation for 24 hrs by luciferase reporter gene assay; assay type: cell-based
Homo sapiens [11] = organism: Homo sapiens; experiment: Activation of Luc-fused NFkB (unknown origin) expressed in non-stimulated human THP1 cells assessed as relative luminescence unit at 10^-12 M after 24 hrs by luciferase reporter gene assay (reference value: 100%); assay type: cell-based
[12] = molecular target: T1, N-formyl peptide receptor 2; experiment: Agonist activity at ALX/FPR2 in human THP1 cells harboring NF-kB-Luc assessed as inhibition of LPS-induced NFkB signalling activation by measuring reduction in IL-12p70 secretion pretreated for 30 mins followed by LPS stimulation for 24 hrs by electrochemiluminescence assay; assay type: cell-based; conditions: read-out: IC50
Mus musculus [13] = experiment: as §1, with “150” for “50”; assay type: functional
[14] = molecular target: T1, N-formyl peptide receptor 2; experiment: Agonist activity at ALX/FPR2 in human THP1 cells harboring NF-kB-Luc assessed as inhibition of LPS-induced NFkB signalling activation by measuring reduction in TNFalpha secretion pretreated for 30 mins followed by LPS stimulation for 24 hrs by electrochemiluminescence assay; assay type: cell-based; conditions: read-out: IC50
[15] = molecular target: T1, N-formyl peptide receptor 2; experiment: Agonist activity at ALX/FPR2 in human THP1 cells harboring NF-kB-Luc assessed as inhibition of LPS-induced NFkB signalling activation by measuring reduction in IL-1beta secretion pretreated for 30 mins followed by LPS stimulation for 24 hrs by electrochemiluminescence assay; assay type: cell-based
Homo sapiens [16] = organism: Homo sapiens; experiment: Activation of Luc-fused NFkB (unknown origin) expressed in non-stimulated human THP1 cells assessed as relative luminescence unit at 10^-8 M after 24 hrs by luciferase reporter gene assay (reference value: 100%); assay type: cell-based
Mus musculus [17] = experiment: as §1, with “PMN leukocytes level” for “total cell count”; assay type: functional
HEK293 [18] = experiment: Induction of intracellular calcium accumulation in HEK293 cells at 0.01 nM to 100 nM by Fluo-4 dye based fluorescence spectrophotometric assay; assay type: functional, cell-based; conditions: Homo sapiens
THP-1 [19] = experiment: Cytotoxicity against human THP1 cells harboring NFkB-Luc assessed as LDH release at 10'12 M after 24 hrs by spectrophotometric method relative to control; assay type: cell-based; conditions: thp-1, 24 h
Homo sapiens [20] = organism: Homo sapiens; experiment: Activation of Luc-fused NFkB (unknown origin) expressed in non-stimulated human THP1 cells assessed as relative luminescence unit at 10^-7 M after 24 hrs by luciferase reporter gene assay (reference value: 100%); assay type: cell-based
Mus musculus [21] = experiment: as §1, with “PMN leukocytes level” for “total cell count”, “150” for “50”; assay type: functional
[22] = molecular target: T1, N-formyl peptide receptor 2; experiment: Agonist activity at ALX/FPR2 in human THP1 cells harboring NF-kB-Luc assessed as inhibition of LPS-induced NFkB signalling activation by measuring reduction in IL-6 secretion pretreated for 30 mins followed by LPS stimulation for 24 hrs by electrochemiluminescence assay; assay type: cell-based; conditions: read-out: IC50
THP-1 [23] = experiment: Cytotoxicity against human THP1 cells harboring NFkB-Luc assessed as LDH release at 10'7 M after 24 hrs by spectrophotometric method relative to control; assay type: cell-based; conditions: thp-1, 24 h
Homo sapiens [24] = organism: Homo sapiens; experiment: Activation of Luc-fused NFkB (unknown origin) expressed in non-stimulated human THP1 cells assessed as relative luminescence unit at 10^-10 M after 24 hrs by luciferase reporter gene assay (reference value: 100%); assay type: cell-based
THP-1 [25] = experiment: Cytotoxicity against human THP1 cells harboring NFkB-Luc assessed as LDH release at 10'9 M after 24 hrs by spectrophotometric method relative to control; assay type: cell-based; conditions: thp-1, 24 h
[26] = molecular target: T2, N-formyl peptide receptor 2 (Homo sapiens) (UniProt P25090); experiment: Agonist activity at ALX/FPR2 in human THP1 cells harboring NF-kB-Luc assessed as inhibition of LPS-induced NFkB signalling activation by measuring NF-kB activation level at 10^-12 M pretreated for 30 mins followed by LPS stimulation for 24 hrs by luciferase reporter gene assay; assay type: cell-based; design: scale not given: the % may be the effect or the level left
T2 sequence (whole entry): T1 sequence (P25090 whole entry)

[27] = molecular target: T2, N-formyl peptide receptor 2 (Homo sapiens); experiment: Agonist activity at ALX/FPR2 in human THP1 cells harboring NF-kB-Luc assessed as inhibition of LPS-induced NFkB signalling activation by measuring IL-6 secretion at 10^-12 M pretreated for 30 mins followed by LPS stimulation for 24 hrs by electrochemiluminescence assay (reference value: 100%); assay type: cell-based; design: scale not given: the % may be the effect or the level left
[28] = molecular target: T2, N-formyl peptide receptor 2 (Homo sapiens); experiment: Agonist activity at ALX/FPR2 in human THP1 cells harboring NF-kB-Luc assessed as inhibition of LPS-induced NFkB signalling activation by measuring TNFalpha secretion at 10^-12 M pretreated for 30 mins followed by LPS stimulation for 24 hrs by electrochemiluminescence assay (reference value: 100%); assay type: cell-based; design: scale not given: the % may be the effect or the level left
[29] = molecular target: T2, N-formyl peptide receptor 2 (Homo sapiens); experiment: Agonist activity at ALX/FPR2 in human THP1 cells harboring NF-kB-Luc assessed as inhibition of LPS-induced NFkB signalling activation by measuring IFNgamma secretion at 10^-12 M pretreated for 30 mins followed by LPS stimulation for 24 hrs by electrochemiluminescence assay (reference value: 100%); assay type: cell-based; design: scale not given: the % may be the effect or the level left
[30] = molecular target: T2, N-formyl peptide receptor 2 (Homo sapiens); experiment: Agonist activity at ALX/FPR2 in human THP1 cells harboring NF-kB-Luc assessed as inhibition of LPS-induced NFkB signalling activation by measuring IL-1beta secretion at 10^-12 M pretreated for 30 mins followed by LPS stimulation for 24 hrs by electrochemiluminescence assay (reference value: 100%); assay type: cell-based; design: scale not given: the % may be the effect or the level left
[31] = molecular target: T2, N-formyl peptide receptor 2 (Homo sapiens); experiment: Agonist activity at ALX/FPR2 in human THP1 cells harboring NF-kB-Luc assessed as inhibition of LPS-induced NFkB signalling activation by measuring IL-12p70 secretion at 10^-12 M pretreated for 30 mins followed by LPS stimulation for 24 hrs by electrochemiluminescence assay (reference value: 100%); assay type: cell-based; design: scale not given: the % may be the effect or the level left
HEK293 [32] = experiment: Induction of intracellular calcium accumulation in HEK293 cells at 2 nM by Fluo-4 dye based fluorescence spectrophotometric assay; assay type: functional, cell-based; conditions: Homo sapiens
[33] = molecular target: T2, N-formyl peptide receptor 2 (Homo sapiens); experiment: Agonist activity at ALX/FPR2 (unknown origin) expressed in HEK293 cells co-expressing Galphaq assessed as induction of intracellular calcium accumulation at 2 nM by Fluo-4 dye based fluorescence spectrophotometric assay; assay type: functional, cell-based

- IC50 [9]: 4.4 nM
- IC50 [10]: 1 nM
- IC50 [12]: 5.1 nM
- IC50 [14]: 5.6 nM
- IC50 [15]: Not Active
- IC50 [22]: 76.6 nM
SMILES: CCCCC[C@@H](O)c1c(/C=C/[C@@H](O)[C@@H](O)CCCC(=O)OC)nc(C)n1C
- Activity (Homo sapiens [1]): 2%
- fold change (FC) (THP-1 [2]): 0.9
- fold change (FC) (THP-1 [3]): 1.1
- Activity (Homo sapiens [4]): 2.1%
- Emax (Mus musculus [5]): 57.9%
- fold change (FC) (THP-1 [6]): 0.9
- fold change (FC) (THP-1 [7]): 0.9
- Activity (Homo sapiens [8]): 2.1%
- Activity (Homo sapiens [11]): 2%
- Emax (Mus musculus [13]): 30.4%
- Activity (Homo sapiens [16]): 2.1%
- Emax (Mus musculus [17]): 51.6%
- Activity (HEK293 [18]): inactive
- fold change (FC) (THP-1 [19]): 1
- Activity (Homo sapiens [20]): 2.5%
- Emax (Mus musculus [21]): 32.5%
- fold change (FC) (THP-1 [23]): 0.9
- Activity (Homo sapiens [24]): 2.3%
- fold change (FC) (THP-1 [25]): 0.8

- Activity [26]: 80%
- Activity [27]: 61.1%
- Activity [28]: 64.2%
- Activity [29]: 83.9%
- Activity [30]: 39.7%
- Activity [31]: 62.9%
SMILES: CCCCC[C@@H](O)c1ccccc1/C=C/[C@@H](O)[C@@H](O)CCCC(=O)OC
- Activity (Homo sapiens [11]): 2.9%
- fold change (FC) (THP-1 [19]): 0.9

- Activity [33]: Active
SMILES: CSCC[C@H](NC(=O)[C@@H](NC(=O)[C@H](CCSC)NC(=O)[C@H](Cc1ccc(O)cc1)NC(=O)[C@H](CCCCN)NC(=O)[C@@H](N)Cc1c[nH]c2ccccc12)C(C)C)C(=O)O
- Activity (HEK293 [32]): inactive
